Reference: US20140213648A1, “METHODS OF INCREASING EPA BLOOD LEVELS” (priority 2012, published 2014)

Assay: 12-week placebo-controlled study: plasma fatty acid concentrations, ratios and proportions (GC/FID)
Assay type: in vivo, human
Conditions: for AA plasma concentration, change from baseline (LS mean (SE)) / AA plasma concentration, end-of-treatment (mean) / DHA plasma concentration, change from baseline (LS mean (SE)) / DHA plasma concentration, end-of-treatment (mean) / Linoleic plasma concentration, change from baseline (LS mean (SE)) / Linoleic plasma concentration, end-of-treatment (mean) / Oleic plasma concentration, change from baseline (LS mean (SE)) / Oleic plasma concentration, end-of-treatment (mean) / Palmitic plasma concentration, change from baseline (LS mean (SE)) / Palmitic plasma concentration, end-of-treatment (mean) / Proportion of monounsaturated fatty acids to total fatty acids in plasma, change from baseline (LS mean (SE)) / Proportion of monounsaturated fatty acids to total fatty acids in plasma, end-of-treatment (mean (SD)) / Proportion of saturated fatty acids to total fatty acids in plasma, change from baseline (LS mean (SE)) / Proportion of saturated fatty acids to total fatty acids in plasma, end-of-treatment (mean (SD)) / Proportion of total omega-3 fatty acids to total fatty acids in plasma, change from baseline (LS mean (SE)) / Proportion of total omega-3 fatty acids to total fatty acids in plasma, end-of-treatment (mean (SD)) / Proportion of total omega-6 fatty acids to total fatty acids in plasma, change from baseline (LS mean (SE)) / Proportion of total omega-6 fatty acids to total fatty acids in plasma, end-of-treatment (mean (SD)) / Ratio of AA/EPA in plasma, change from baseline (LS mean (SE)) / Ratio of AA/EPA in plasma, end-of-treatment (mean) / Ratio of n-3/n-6 FA in plasma, change from baseline (LS mean (SE)) / Ratio of n-3/n-6 FA in plasma, end-of-treatment (mean) / Stearic plasma concentration, change from baseline (LS mean (SE)) / Stearic plasma concentration, end-of-treatment (mean): week 12
Description: A multi-center, placebo-controlled randomized, double-blind, 12-week study with an open-label extension is performed to evaluate the efficacy and safety of AMR101 in patients with fasting triglyceride levels ≧500 mg/dL. The primary objective of the study is to determine the efficacy of AMR101 2 g daily and 4 g daily, compared to placebo, in lowering fasting TG levels in patients with fasting TG levels ≧500 mg/dL and ≦1500 mg/dL (≧5.65 mmol/L and ≦16.94 mmol/L).
Eligible patients will be randomly assigned at Visit 4 (Week 0) to receive orally AMR101 2 g daily, AMR101 4 g daily, or placebo for the 12-week double-blind treatment period. AMR101 is provided in 1 g liquid-filled, oblong, gelatin capsules. The matching placebo capsule is filled with light liquid paraffin and contains 0 g of AMR101. During the double-blind treatment period, patients will take 2 capsules (AMR101 or matching placebo) in the morning and 2 in the evening for a total of 4 capsules per day. Patients in the AMR101 2 g/day treatment group will receive 1 AMR101 1 g capsule and 1 matching placebo capsule in the morning and in the evening. Patients in the AMR101 4 g/day treatment group will receive 2 AMR101 1 g capsules in the morning and evening.
Lipids were extracted from plasma and RBC suspensions and converted into fatty acid methyl esters for analysis using a standard validated gas chromatography/flame ionization detection method. Fatty acid parameters were compared between EPA treatment groups and placebo using an ANCOVA model with treatment, gender, type of statin therapy, and presence of diabetes as factors, and the baseline parameter value as a covariate. LSMs, SEs, and 2-tailed 95% confidence intervals for each treatment group and for each comparison were determined.

[1] = 2 g/day vs placebo, week 12, P <0.0001
[2] = 4 g/day vs placebo, week 12, P <0.0001

**Q.** Which results are given for `CC/C=C\C/C=C\C/C=C\C/C=C\C/C=C\CCCC(=O)OCC` [IPE, Icosapent ethyl]?
**A.** Dose dependence of EPA concentration in plasma (in words) (2 g/day or 4 g/day, 12 weeks): significantly increased EPA concentrations in a linear, dose-dependent fashion; Proportion of monounsaturated fatty acids to total fatty acids in plasma, mean placebo-adjusted percent change from baseline (2 g/day vs placebo, week 12, P 0.0009): −7.4%; Palmitic plasma concentration, mean placebo-adjusted percent change from baseline (2 g/day vs placebo, week 12, P 0.0011): −23.9%; Oleic plasma concentration, mean placebo-adjusted percent change from baseline (2 g/day vs placebo, week 12, P 0.0023): −23.8%; Stearic plasma concentration, mean placebo-adjusted percent change from baseline (2 g/day vs placebo, week 12, P 0.0040): −20.7%; Linoleic plasma concentration, mean placebo-adjusted percent change from baseline (2 g/day vs placebo, week 12, P 0.0136): −15.2%; Proportion of total omega-6 fatty acids to total fatty acids in plasma, mean placebo-adjusted percent change from baseline (2 g/day vs placebo, week 12, P 0.3044): 3.2%; DHA plasma concentration, mean placebo-adjusted percent change from baseline (2 g/day vs placebo, week 12, P 0.7217): −2.3%; Proportion of saturated fatty acids to total fatty acids in plasma, mean placebo-adjusted percent change from baseline (2 g/day vs placebo, week 12, P 0.8076): −0.4%; AA plasma concentration, mean placebo-adjusted percent change from baseline [1]: −16.4%; Proportion of total omega-3 fatty acids to total fatty acids in plasma, mean placebo-adjusted percent change from baseline [1]: 68.4%; Ratio of AA/EPA in plasma, mean placebo-adjusted percent change from baseline [1]: −88.4%; Ratio of n-3/n-6 FA in plasma, mean placebo-adjusted percent change from baseline [1]: 76.8%; AA plasma concentration, change from baseline (LS mean (SE)) (2 g/day): −36.7 (10.6); AA plasma concentration, end-of-treatment (mean) (2 g/day): 327.3; DHA plasma concentration, change from baseline (LS mean (SE)) (2 g/day): −13.1 (6.2); DHA plasma concentration, end-of-treatment (mean) (2 g/day): 104.8; Linoleic plasma concentration, change from baseline (LS mean (SE)) (2 g/day): −227 (121.4); Linoleic plasma concentration, end-of-treatment (mean) (2 g/day): 1981; Oleic plasma concentration, change from baseline (LS mean (SE)) (2 g/day): −414 (142.9); Oleic plasma concentration, end-of-treatment (mean) (2 g/day): 2018; Palmitic plasma concentration, change from baseline (LS mean (SE)) (2 g/day): −353 (126.9); Palmitic plasma concentration, end-of-treatment (mean) (2 g/day): 2015; Proportion of monounsaturated fatty acids to total fatty acids in plasma, change from baseline (LS mean (SE)) (2 g/day): −1.4 (0.5) mol %; Proportion of monounsaturated fatty acids to total fatty acids in plasma, end-of-treatment (mean (SD)) (2 g/day): 29.5 (4.9) mol %; Proportion of saturated fatty acids to total fatty acids in plasma, change from baseline (LS mean (SE)) (2 g/day): −0.3 (0.5) mol %; Proportion of saturated fatty acids to total fatty acids in plasma, end-of-treatment (mean (SD)) (2 g/day): 35.8 (3.7) mol %; Proportion of total omega-3 fatty acids to total fatty acids in plasma, change from baseline (LS mean (SE)) (2 g/day): 2.0 (0.2) mol %; Proportion of total omega-3 fatty acids to total fatty acids in plasma, end-of-treatment (mean (SD)) (2 g/day): 4.8 (1.3) mol %; Proportion of total omega-6 fatty acids to total fatty acids in plasma, change from baseline (LS mean (SE)) (2 g/day): −0.2 (0.7) mol %; Proportion of total omega-6 fatty acids to total fatty acids in plasma, end-of-treatment (mean (SD)) (2 g/day): 29.8 (6.8) mol %; Ratio of AA/EPA in plasma, change from baseline (LS mean (SE)) (2 g/day): −9.6 (0.5); Ratio of AA/EPA in plasma, end-of-treatment (mean) (2 g/day): 2.3; Ratio of n-3/n-6 FA in plasma, change from baseline (LS mean (SE)) (2 g/day): 0.07 (0.009); Ratio of n-3/n-6 FA in plasma, end-of-treatment (mean) (2 g/day): 0.17; Stearic plasma concentration, change from baseline (LS mean (SE)) (2 g/day): −57.8 (33.3); Stearic plasma concentration, end-of-treatment (mean) (2 g/day): 541.5; Oleic plasma concentration, mean placebo-adjusted percent change from baseline (4 g/day vs placebo, week 12, P 0.0001): −31.9%; Stearic plasma concentration, mean placebo-adjusted percent change from baseline (4 g/day vs placebo, week 12, P 0.0002): −28.4%; Linoleic plasma concentration, mean placebo-adjusted percent change from baseline (4 g/day vs placebo, week 12, P 0.0003): −23.7%; Proportion of monounsaturated fatty acids to total fatty acids in plasma, mean placebo-adjusted percent change from baseline (4 g/day vs placebo, week 12, P 0.0008): −7.7%; Proportion of saturated fatty acids to total fatty acids in plasma, mean placebo-adjusted percent change from baseline (4 g/day vs placebo, week 12, P 0.1049): −2.8%; DHA plasma concentration, mean placebo-adjusted percent change from baseline (4 g/day vs placebo, week 12, P 0.7115): 2.4%; Proportion of total omega-6 fatty acids to total fatty acids in plasma, mean placebo-adjusted percent change from baseline (4 g/day vs placebo, week 12, P 0.8846): 0.5%; AA plasma concentration, mean placebo-adjusted percent change from baseline [2]: −26.8%; Palmitic plasma concentration, mean placebo-adjusted percent change from baseline [2]: −34.4%; Proportion of total omega-3 fatty acids to total fatty acids in plasma, mean placebo-adjusted percent change from baseline [2]: 132.7%; Ratio of AA/EPA in plasma, mean placebo-adjusted percent change from baseline [2]: −99.4%; Ratio of n-3/n-6 FA in plasma, mean placebo-adjusted percent change from baseline [2]: 145.8%; AA plasma concentration, change from baseline (LS mean (SE)) (4 g/day): −76.2 (11.3); AA plasma concentration, end-of-treatment (mean) (4 g/day): 280.3; DHA plasma concentration, change from baseline (LS mean (SE)) (4 g/day): −4.5 (6.6); DHA plasma concentration, end-of-treatment (mean) (4 g/day): 118.1; Linoleic plasma concentration, change from baseline (LS mean (SE)) (4 g/day): −309 (128.1); Linoleic plasma concentration, end-of-treatment (mean) (4 g/day): 1882; Oleic plasma concentration, change from baseline (LS mean (SE)) (4 g/day): −546 (154.0); Oleic plasma concentration, end-of-treatment (mean) (4 g/day): 1885; Palmitic plasma concentration, change from baseline (LS mean (SE)) (4 g/day): −560 (138.1); Palmitic plasma concentration, end-of-treatment (mean) (4 g/day): 1789; Proportion of monounsaturated fatty acids to total fatty acids in plasma, change from baseline (LS mean (SE)) (4 g/day): −1.7 (0.5) mol %; Proportion of monounsaturated fatty acids to total fatty acids in plasma, end-of-treatment (mean (SD)) (4 g/day): 28.7 (4.0) mol %; Proportion of saturated fatty acids to total fatty acids in plasma, change from baseline (LS mean (SE)) (4 g/day): −1.2 (0.5) mol %; Proportion of saturated fatty acids to total fatty acids in plasma, end-of-treatment (mean (SD)) (4 g/day): 34.8 (3.5) mol %; Proportion of total omega-3 fatty acids to total fatty acids in plasma, change from baseline (LS mean (SE)) (4 g/day): 3.8 (0.2) mol %; Proportion of total omega-3 fatty acids to total fatty acids in plasma, end-of-treatment (mean (SD)) (4 g/day): 6.7 (1.9) mol %; Proportion of total omega-6 fatty acids to total fatty acids in plasma, change from baseline (LS mean (SE)) (4 g/day): −0.9 (0.7) mol %; Proportion of total omega-6 fatty acids to total fatty acids in plasma, end-of-treatment (mean (SD)) (4 g/day): 29.8 (6.2) mol %; Ratio of AA/EPA in plasma, change from baseline (LS mean (SE)) (4 g/day): −10.8 (0.5); Ratio of AA/EPA in plasma, end-of-treatment (mean) (4 g/day): 1.2; Ratio of n-3/n-6 FA in plasma, change from baseline (LS mean (SE)) (4 g/day): 0.4 (0.009); Ratio of n-3/n-6 FA in plasma, end-of-treatment (mean) (4 g/day): 0.24; Stearic plasma concentration, change from baseline (LS mean (SE)) (4 g/day): −101 (35.4); Stearic plasma concentration, end-of-treatment (mean) (4 g/day): 500.3
